In data set [1] the test system is hepatic progenitors. Kind of data set: Treatment of hepatic progenitors (days 13-18), hepatocyte-like cell, periportal versus perivenous gene expression. The format is cell-based, human. The following applies: for expression of FAH, PAH, HGD, TAT, CPS1, ARG1, FBA, FBB and FBG: PKG antagonists.
For data set [2], the system named is hPSC-derived DE. Briefly: Foregut specification: treatment of hPSC-derived DE (day 3), downstream gene expression by RT-qPCR. Format: cell-based, human. The following applies: for downstream LB gene expression (AFP, CEBPA, TBX3, HNF1B) / expression of MHG markers CDX2 and EVX1: 24 h during foregut specification; for HNF6, PROX1 and HEX expression: Wnt inhibition during foregut specification. The source says: RT-quantitative PCR was used to quantify gene expression. […] During liver development, populations of definitive endoderm cells are first patterned along the anterior-posterior axis to form either the foregut or mid/hindgut. In the present invention the effects of signaling inhibition on the developmental competence of the foregut cells to give rise to the liver bud (LB) cells was examined. Competence is defined as the capacity of one stem cell or progenitor cell to differentiate into its daughter cell type. For example, the posterior foregut is competent when it could give rise to its daughter cell types such as the pancreatic endoderm and LB cells.
(In qPCR the cycle at which signal appears reflects the starting amount.)

Data set [3] deals with PFG cells. Kind of data set: Liver bud (LB) specification from posterior foregut, days 4-6, gene expression. The format is cell-based, human. As to the method: (§1) mTeSR1-grown hPSCs were cultured and differentiated as follows: • a) hPSCs cells were seeded at 1:12 as small clumps using Accutase (Millipore, Cat#SCR005) and Geltrex (Lifetech, Cat#A1413302). • b) Anterior Primitive Streak (day 1) was specified using Activin A (100 ng/ml), CHIR99021 (3 μM), PI-103 (50 nM) and Fgf2 (10 ng/ml) in serumless CDM2 basal medium for 24 hr. • c) Activin A (100 ng/ml) and DM3189 (250 nM) and PI-103 (50 nM) were added in the same basal medium for 24 hr to induce Definitive Endoderm (DE) (day 2). • d) DE was then patterned into PFG by using A83-01 (1 μM), RA (2 μM), BMP4 (30 ng/ml) and Fgf2 (10 ng/ml) in CDM KOSR basal media for another 24 hrs. • e) PFG was further differentiated to LB progenitors using Activin A (100 ng/ml), 8-bromo-CAMP (1 mM) and BMP4 (10 ng/ml) in CDM KOSR basal media for 3 days (day 4 to 6). • f) LB progenitors were treated with BMP4 (10 ng/ml), Oncostatin M (10 ng/ml), Dexamethasone ([…]), DAPT, C59 (1 μM) or RO4919097 (2 μM), forskolin ([…]), human recombinant insulin (10 μg/ml), ascorbic acid-2 phosphate (200 μg/ml), L-gluthathione ([…]) and amino acid concentrate and in IMDM/F12 media for the next 6 days (day 7 to 12) to induce hepatic progenitors. • g) Hepatic progenitors were treated with Dexamethasone (10 μM), RO4929097 (2 μM) or DAPT (10 μM), Forskolin (10 μM), human recombinant insulin (10 μg/ml), ascorbic acid-2 phosphate (200 μg/ml) in IMDM/F12 media for 6 days (day 13 to 18) to generate hepatocyte-like cells. Intra-Splenic Transplantation into FRG^−/− Mice
(§2) RNA was extracted using Zymo RNA extraction kit. RT-quantitative PCR was used to quantify gene expression. Primer sequences were designed by NCBI Primer Tool and primer specificity and linearity was tested before usage for gene expression analyses.
The signaling pathways, including Retinoic, Nodal/Activin, Bmp, PKA, FGF and Wnt signaling, were explored to determine if they could directly regulate LB specification.

Data set [4] concerns hPSC-derived LB cells. Kind of data set: Hepatic progenitor specification from hPSC-derived LB cells (days 7-12), liver gene expression. The protocol: as §1, §2
To identify the signals that regulate the progression of the LB progenitors from an ALB- to a more differentiated ALB+ state, multiple signaling pathways were systematically screened for their effects on ALB expression (including FGF, WNT, Notch, HGF, cAMP/PKA, TGFβ, and BMP).

In the case of `CC1=C(/C=C/C(C)=C\C=C\C(C)=C\C(=O)O)C(C)(C)CCC1` [9-Cis-RA, 3,7-Dimethyl-9-(2,6,6-trimethyl-1-cyclohexen-1-yl)nona-2E,4E,6Z,8E-tetraenoic acid], in data set [1], the “expression of CYP3A5, CYP3A7, CYP3A4, CYP2D1, CYP2E1, and CYP1A1” value is “enhance”; the “expression of periportal genes such as ARG1, OTC, ASL1 and CPS1” value was “reduces”.

On to `CC(=N)NCc1cccc(CN)c1.Cl.Cl` [1400 W dihydrochloride, N-[[3-(Aminomethyl)phenyl]methyl]-ethanimidamide dihydrochloride], for which the “expression of FAH, PAH, HGD, TAT, CPS1, ARG1, FBA, FBB and FBG” value in data set [1] is recorded as “upregulate”.

`Cc1cc(-c2ccc(CC(=O)Nc3ccc(-c4cccnc4)cc3)cc2)ccn1` [C59, 2-(4-(2-methylpyridin-4-yl)phenyl)-N-(4-(pyridin-3-yl)phenyl)acetamide]: the “expression of ALB, CYP3A7” value in data set [1] was “promotes”. For the same compound, in data set [2], the “downstream LB gene expression (AFP, CEBPA, TBX3, HNF1B)” value is given as “severely reduces”; the “expression of MHG markers CDX2 and EVX1” value was “reduces”; the “HNF6, PROX1 and HEX expression” value is reported as “upregulated”.

With `COC(=O)[C@@]1(OC)C[C@H]2O[C@]1(C)n1c3ccccc3c3c4c(c5c6ccccc6n2c5c31)C(=O)N(C)C4` [KT5823, (9S,10R,12R)-2,3,9,10,11,12-Hexahydro-10-methoxy-2,9-dimethyl-1-oxo-9,12-epoxy-1H-diindolo[1,2,3-fg:3′,2′,1′-kl]pyrrolo[3,4-i][1,6]benzodiazocine-10-carboxylic acid, methyl ester], the “expression of FAH, PAH, HGD, TAT, CPS1, ARG1, FBA, FBB and FBG” value in data set [1] is listed as “upregulate”.

Regarding Activin: activator of TGFβ signaling, the “later expression of ALB in subsequent differentiation” value in data set [3] (10 ng/ml during LB specification) is “increases”. Moreover, in data set [3] (day 4 to 6), the “HNF4A, HNF1A, and TBX3 levels” value is reported as “increases”; the “LB expression (AFP and CEBPA)” value is “reduces”. Besides, the LB marker expression entry in data set [3] (increasing the dose) was “seems to reduce”. In addition, the “expression of ALB on day 13” value in data set [3] (treatment during LB specification (days 4-6)) was “enhances”. In addition, the periportal genes result in data set [1] is listed as “downregulation”.

For “DKK1: Dickkopf 1, inhibitor of Wnt signaling”, the “expression of ALB, CYP3A7” value in data set [1] is recorded as “promotes”. Further, in data set [2], the “downstream LB gene expression (AFP, CEBPA, TBX3, HNF1B)” value is listed as “severely reduces”; the “expression of MHG markers CDX2 and EVX1” value is on record as “reduces”; the “HNF6, PROX1 and HEX expression” value was “upregulated”.

Turning to “human recombinant insulin: activator of insulin signaling”, the “tyrosine metabolic genes and xenobiotic metabolic genes such as CYP3A4” value in data set [1] is on record as “continues to enhance”. Also, the “expression of ALB, CPS1 and CYP3A4” value in data set [4] is “strongly enhanced”. Moreover, the “expression of PAH, HGD, HPD, TAT, MAI, and FAH” value in data set [4] (days 7 to 12) was “significantly increases”.
